In US20100249172A1, “9-CHLORO NOSCAPINE AND ITS USE IN TREATING CANCERS, INCLUDING DRUG-RESISTANT CANCERS” (EMORY UNIVERSITY, priority 2007, published 2010):

Assays:
tubulin = molecular target: T1, tubulin; assay: Tubulin binding assay (fluorescence titration / quenching); set-up: species or system mammalian; conditions: 2 μM tubulin, 45 min at 37° C., pH 6.8; mean±SD, four experiments; read-out: dissociation constant (Kd) for binding to tubulin
T1 construct: other: 2 μM tubulin, 45 min at 37° C., pH 6.8; mean±SD, four experim
Method: Cell culture reagents were obtained from Mediatech, Cellgro. CEM, a human lymphoblastoid line was provided by Dr. William T. Beck (Cancer Center, University of Illinois at Chicago). MCF-7 cells were maintained in Dulbecco's Modification of Eagle's Medium 1× (DMEM) with 4.5 g/L glucose and L-glutamine (Mediatech, Cellgro) supplemented with 10% fetal bovine serum (Invitrogen, Carlsbad, Calif.) and 1% penicillin/streptomycin (Mediatech, Cellgro). MDA-MB-231 and CEM cells were grown in RPMI-1640 medium supplemented with 10% fetal bovine serum, and 1% penicillin/streptomycin. […]
Fluorescence titration for determining the tubulin binding parameters was performed as described previously. […] The relative intrinsic fluorescence intensity of tubulin was then monitored in a JASCO FP-6500 spectrofluorometer (JASCO, Tokyo, Japan) using a cuvette of 0.3-cm path length, and the excitation wavelength was 295 nm. The fluorescence emission intensity of noscapine and its derivatives at this excitation wavelength was negligible. A 0.3-cm path-length cuvette was used to minimize the inner filter effects caused by the absorbance of these agents at higher concentration ranges. In addition, the inner filter effects were corrected using a formula F corrected ═F observed•antilog [(Aex+Aem)/2], where Aex is the absorbance at the excitation wavelength and Aem is the absorbance at the emission wavelength. […]

CEM cells = assay: MTS cell proliferation assay; assay type: cell-based, human
Method: Suspension cells (CEM) were seeded into 96-well plates at a density of 5×10^3 cells per well and were treated with increasing concentrations of all halogenated analogs for 72 hours. Measurement of cell proliferation was performed colorimetrically by 3-(4,5-dimethylthiazol-2-yl)-5-(3-carboxymethoxyphenyl)-2-(4-sulphophenyl)-2H-tetrazolium, inner salt (MTS) assay, using the CellTiter96 AQueous One Solution Reagent (Promega, Madison, Wis.). Cells were exposed to MTS for 3 hours and absorbance was measured using a microplate reader (Molecular Devices, Sunnyvale, Calif.) at an optical density (OD) of 490 nm. The percentage of cell survival as a function of drug concentration for both the assays was then plotted to determine the IC50 value, which stands for the drug concentration needed to prevent cell proliferation by 50%.
Having identified tubulin as the target molecule, the pharmacological study was extended at the cellular level to determine if all the halogenated analogs affected cancer cell proliferation. As a preliminary screen, 9-chloro-nos and noscapine were evaluated for their antiproliferative activity in three human cancer cell lines; human breast adenocarcinoma cells (estrogen- and progesterone-receptor positive, MCF-7 and estrogen- and progesterone-receptor negative, MDA-MB-231) and human lymphoblastoid cells CEM. […]

MCF-7 cells = assay: Immunofluorescence confocal microscopy of spindle architecture and nuclear morphology; assay type: cell-based, human; conditions: 25 μM, 0, 12, 24, 48 and 72 hours
Method: Cells adhered to poly-L-lysine coated coverslips were treated with noscapine, 9-chloro-noscapine, and other halogenated analogs (9-F-nos, 9-Br-nos, and 9-I-nos) for 0, 12, 24, 48 and 72 hours. After treatment, cells were fixed with cold (−20° C.) methanol for 5 min and then washed with phosphate-buffered saline (PBS) for 5 min. Non-specific sites were blocked by incubating with 100 μl of 2% BSA in PBS at 37° C. for 15 min. A mouse monoclonal antibody against α-tubulin (DM1A, Sigma) was diluted 1:500 in 2% BSA/PBS (100 μl) and incubated with the coverslips for 2 hours at 37° C. Cells were then washed with 2% BSA/PBS for 10 min at room temperature before incubating with a 1:200 dilution of a fluorescein-isothiocyanate (FITC)-labeled goat anti-mouse IgG antibody (Jackson ImmunoResearch, Inc., West Grove, Pa.) at 37° C. for 1 hour. Coverslips were then rinsed with 2% BSA/PBS for 10 min and incubated with propidium iodide (0.5 μg/ml) for 15 min at room temperature before they were mounted with Aquamount (Lerner Laboratories, Pittsburgh, Pa.) containing 0.01% 1,4-diazobicyclo(2,2,2)octane (DABCO, Sigma). […]
To test whether 9-chloro-noscapine induces spindle abnormalities prior to apoptotic cell death indicated by nuclear fragmentation of dying cells, the spindle architecture and nuclear morphology of MCF-7 cells treated with 9-chloronoscapine was evaluated using confocal microscopy (FIG. 4). […]

[1] = test system: CEM/VLB100 (vinblastine-resistant variant); assay: Inhibition of cell proliferation; assay type: cell-based, human
[2] = test system: CEM/VM-1-5 (teniposide-resistant variant); assay: Inhibition of cell proliferation; assay type: cell-based, human

SMILES: COc1ccc2c(c1OC)C(=O)O[C@@H]2[C@H]1c2c(c(Cl)c3c(c2OC)OCO3)CCN1C [9-Cl-nos, (S)-3-((R)-9-chloro-4-methoxy-6-methyl-5,6,7,8-tetrahydro-[1,3]dioxolo[4,5-g]isoquinolin-5-yl)-6,7-dimethoxyisobenzofuran-1(3H)-one]
- Kd (tubulin): 40 ± 8 µM
- inhibition of cell proliferation (in words) (CEM cells): effectively inhibits cell proliferation
- IC50 (CEM cells; Homo sapiens, CCRF-CEM, 72 hours): 1.2 ± 0.3 µM
- spindle abnormalities / mitotic arrest (MCF-7 cells): mitotic arrest commencing as early as 12 hours, and maximizing at 24 hours
- inhibition of cell proliferation (in words) [1]: effectively inhibits cell proliferation
- inhibition of cell proliferation (in words) [2]: effectively inhibits cell proliferation
